Like-named read-outs stand apart in the source and are kept apart here.
Tested on: OVCAR-8 cells
Assay: Drug-siRNA combination screen: 346-compound anticancer library at 100 nM, CCK-8 viability
Conditions: for synergy / antagonism of drug with gene knockdowns, in words / number of genes (of 18) whose knockdown synergizes with the drug: drug 100 nM; for synergy / antagonism of drug with gene knockdowns, in words: panel of 18 siRNA knockdowns; for number of genes (of 18) whose knockdown synergizes with the drug: siRNA knockdown
[1] = OVCAR-8, drug 100 nM plus siRNA knockdown of each of 18 genes, distance VAB−VA×VB in SD, single gene contributes at most +5 / −5, negative = synergy, positive = antagonism

Method: Comparisons of drug effect were performed using data generated on the same day. A minimum of two replicates was performed with drug library screening and a minimum of three replicates was done for all other tests.
Combinatorial effects were classified using two measures of combinatorial action: 1) the coefficient of drug interaction (CDI), defined as (VAB/(VA×VB)) and 2) the distance in standard deviation (SD) of VAB−(VA×VB). […] In confirmation studies significance was determined using a Student's T-test (two-tailed, unpaired) with p<0.05 indicating significance.
To measure the effect of a gene on drug effect, comparisons were made between high expressers of each gene and the wild type cells exposed to sham reagents.
In theory, CDI<1 is indicative of synergy while CDI>1 is indicative of antagonism or additive effect in a multiplicative model.

Row | SMILES | Score (sum of observed SD values for 18 genes) [1] | other results
1 | Cc1nc2ccc(CN(C)c3ccc(C(=O)N[C@@H](CCC(=O)O)C(=O)O)s3)cc2c(=O)[nH]1 [Raltitrexed] | 44.53 SD | 
2 | COc1ccccc1OCC(O)CN1CCN(CC(=O)Nc2c(C)cccc2C)CC1 (centres unmarked) [Ranolazine] | −11.08 SD | 
3 | CNC(=O)c1cc(Oc2ccc(NC(=O)Nc3cc(C(C)(C)C)nn3-c3ccc4ncccc4c3)c(F)c2)ccn1 [Rebastinib] | 17.66 SD | 
4 | CNC(=O)c1cc(Oc2ccc(NC(=O)Nc3ccc(Cl)c(C(F)(F)F)c3)c(F)c2)ccn1 [Regorafinib] | 3.75 SD | 
5 | COc1cc(OC)c(/C=C/S(=O)(=O)Cc2ccc(OC)c(NCC(=O)O)c2)c(OC)c1 [Rigosertib] | 6.43 SD | 
6 | CN(CCOc1ccc(CC2SC(=O)NC2=O)cc1)c1ccccn1 (centres unmarked) [Rosiglitazone] | −27.32 SD | 
7 | CNCc1ccc(-c2[nH]c3cc(F)cc4c3c2CCNC4=O)cc1 [Rucaparib] | −3.34 SD | 
8 | Cn1cc(C2=C(c3ccc(Cl)cc3Cl)C(=O)NC2=O)c2ccccc21 [SB216763] | −11.62 SD | 
9 | CN(C)CCOc1ccc(-c2nc(-c3ccncc3)c(-c3ccc4c(c3)CC/C4=N\O)[nH]2)cc1 [SB590885] | 27.34 SD | synergy / antagonism of drug with gene knockdowns, in words (OVCAR-8): antagonistic with multiple genes
10 | C[S+]([O-])c1ccc(-c2nc(-c3ccc(F)cc3)c(-c3ccncc3)[nH]2)cc1 (centres unmarked) [SB 203580] | −40.85 SD | number of genes (of 18) whose knockdown synergizes with the drug (OVCAR-8): 9 genes
11 | NC(=O)c1ccc(-c2nc(-c3ccccn3)c(-c3ccc4c(c3)OCO4)[nH]2)cc1 [SB 431542] | −30.82 SD | 
12 | Cc1cccc(-c2[nH]c(C(C)(C)C)nc2-c2ccc3nccnc3c2)n1 [SB 525334] | −32.05 SD | 
13 | Cc1ccc(C(=O)N(CCCN)[C@@H](c2oc3cc(Cl)ccc3c(=O)c2Cc2ccccc2)C(C)C)cc1 [SB 743921] | −4.09 SD | 
14 | CN1CCC(CNc2ccc3ncc(-c4cccc(OC(F)(F)F)c4)n3n2)CC1 [SGI - 1776] | −12.21 SD | 
15 | Cn1cc(-c2ccc3nnc(Sc4ccc5ncccc5c4)n3n2)cn1 [SGX-523] | −8.5 SD | 
16 | CC(C)(C)c1cnc(CSc2cnc(NC(=O)C3CCNCC3)s2)o1 [SNS-032] | -62.71 SD | synergy / antagonism of drug with gene knockdowns, in words (OVCAR-8): strong synergies with multiple genes
17 | O=C(Nc1ccccc1-c1cn2c(CN3CCNCC3)csc2n1)c1cnc2ccccc2n1 [SRT1720] | −34.27 SD | 
18 | Cc1cccc(Nc2nc(-c3ccncc3)cs2)c1 [STF-62247] | −24.47 SD | 
19 | Cc1[nH]c(/C=C2\C(=O)Nc3ccc(S(=O)(=O)N(C)c4cccc(Cl)c4)cc32)c(C)c1C(=O)N1CCN(C)CC1 [SU11274] | −0.42 SD | 
20 | CC[C@@H](C(=O)[C@@H](C)[C@@H](O)[C@H](C)[C@@H]1O[C@@H]([C@@H](CC)C(=O)O)CC[C@@H]1C)[C@H]1O[C@]2(C=C[C@@H](O)[C@]3(CC[C@@](C)([C@H]4CC[C@](O)(CC)[C@H](C)O4)O3)O2)[C@H](C)C[C@@H]1C [Salinomycin] | −21.61 SD | 
21 | CN1CCN(CCOc2cc(OC3CCOCC3)c3c(Nc4c(Cl)ccc5c4OCO5)ncnc3c2)CC1 [Saracatinib] | -53.14 SD | 
22 | CC[C@H](CO)Nc1nc(NCc2ccccc2)c2ncn(C(C)C)c2n1 [Seliciclib] |  | Score (sum of observed SD values for 18 genes): −1.72 SD
23 | Cn1cnc2c(F)c(Nc3ccc(Br)cc3Cl)c(C(=O)NOCCO)cc21 [Selumetinib] | -63.99 SD | number of genes (of 18) whose knockdown synergizes with the drug (OVCAR-8): 16 genes
24 | c1ccc2c(CCNc3ccc(Nc4ccncc4)cc3)c[nH]c2c1 [Serdemetan] | −29.35 SD | 
25 | O=C(O)c1ccc2c(c1)nc(Nc1cccc(Cl)c1)c1ccncc12 [Silmitasertib] | −4.51 SD | 
26 | CCC(C)(C)C(=O)O[C@H]1C[C@@H](C)C=C2C=C[C@H](C)[C@H](CC[C@@H]3C[C@@H](O)CC(=O)O3)[C@H]21 [Simvastatin] | −20.34 SD | 
27 | CC(NC(=O)c1ccccc1/N=C/c1c(O)ccc2ccccc12)c1ccccc1 (centres unmarked) [Sirtinol] | −2.18 SD | 
28 | CCCC(=O)[O-].[Na+] [Sodium butyrate] |  | Score (sum of observed SD values for 18 genes): −16.25 SD

From US11946094B2, “Combination therapies and methods of use thereof” (Augusta University Research Institute, Inc., priority 2017, dated 2024)
